# Source: patent US7759334B2, “Soluble forms of amoxicillin and treatment of animals” (Pharmaceutical Solutions, Inc., priority 1999, dated 2010)
# Experiments:
# STREP Suis Type 2 = test: Treatment of streptococcus Suis in nursery pigs; type: in vivo; settings: 300 pigs, 3 mg/lb for 7 days from 35 days of age
# Protocol: Treatment of streptococcus Suis—a group of 600 pigs was divided into 2 groups of 300. Each group was side by side in a 600 animal nursery room. Group 1 (300) was treated with 3 mg/lb of amoxicillin at 35 days of age for a period of 7 days. Group 2 (300) was treated with a placebo—citric acid/nutrisweet/strawberry flavor at 35 days of age for a period of 7 days. […] Death loss ranged from 3 to 10 percent with poor treatment results.
# Hermophilus Pawasuis = test: Treatment for Hermophilus Pawasuis in finishing gilts; type: in vivo; settings: 500 gilts, 3 mg/# via water
# Excerpt: Treatment for Hermophilus Pawasuis in finishing Gilts—wt. 250#. • Marked Reduction in death loss following 5 day coarse of therapy.
# [1] = cited from earlier work
# Enterococci = settings: cited from earlier work
compound,measurement,setting,value
CC1(C)S[C@@H]2[C@H](NC(=O)[C@H](N)c3ccc(O)cc3)C(=O)N2[C@H]1C(=O)O [amoxicillin],Chronic cells @ 50,STREP Suis Type 2,1
same,Morbidity Number,STREP Suis Type 2,2
same,Mortality Number,STREP Suis Type 2,0
same,Morbidity 8-142,Hermophilus Pawasuis,0
same,Mortality In 14 days,Hermophilus Pawasuis,0
same,Mortality result in 7 days,Hermophilus Pawasuis,0
same,Morbidity 0-7,Hermophilus Pawasuis; days 0-7,2
same,Peak plasma concentration relative to ampicillin,[1]; oral administration of the same doses,two to two and one-half times greater
same,Time at which peak plasma concentrations are reached,[1]; oral administration,2 h
same,Peak concentration in plasma (average),"[1]; oral, 250 mg administered",about 4 μg/ml
CC1(C)S[C@@H]2[C@H](NC(=O)[C@H](N)c3ccccc3)C(=O)N2[C@H]1C(=O)O [ampicillin],IVIIC for ampicillin averages,Enterococci,1.5 mg/mL
